Assays:
[1] = tested on: EL-4 tumour cells; test: LDH cytotoxicity assay, OT-I CD8+ CTLs co-cultured with Ova peptide-pulsed EL-4 target cells; type: cell-based, murine; conditions: 1.25 mM BAPTA, LDH assay 3 h
Description: (§1) FIG. 1. L-type Cav channel agonists increase Gli1 expression and enhance specific cell killing by murine CD8+ CTLs. CD8^+ T cells were isolated from the spleen and inguinal lymph nodes of Rag2^−/− OT-I mice, and CTLs were generated. (A) Cells were restimulated on day 9/10 for 3 hours using plate-bound anti-CD3ε in the presence of indicated concentrations of FPL 64176 or carrier control. RNA was extracted and Gli1 expression was assessed by qRT-PCR. Data is n=3 independent experiments. us=unstimulated cells. (B) An LDH cytotoxicity assay was performed using OT-I CTLs. On day 7, CTLs were co-cultured with Ova peptide-pulsed EL-4 cells in the presence of 10 μM FPL 64176 (squares) or carrier control (circles). Data is n=4 independent experiments. (C) Updated experiment of (A). Data is now n=4 independent experiments. Data is normalised to Tbp as a reference gene. 0h=unstimulated cells. (D) Same data as (B) represented differently. […] Error bars indicate SD. p values were calculated using an unpaired two-tailed Student's t test (C) or a two-way ANOVA (B/D). * indicates p<0.05, ** indicates p<0.01, **** indicates p<0.0001.
FIG. 11. […] (A) Quantitative analysis of live cell numbers. […] (E) Quantitative analysis of live cell numbers. […]
To ensure that the use of L-type Cav agonist is not adversely affecting immune cells, general cell functions were assessed. […]

[2] = tested on: GLI1; test: GLI1 expression by qRT-PCR in NK-92 cells; type: cell-based, human; conditions: stimulated with anti-NKp46 mAb 4 hours, 100 μM, vs carrier control
Description: FIG. 5. L-type Cav channel agonists increase GLI1 expression in the human NK cell line NK-92 and promote specific tumour cell killing. (A) NK-92 cells were stimulated using an anti-NKp46 mAb for 4 hours in the presence of 10 μM FPL 64176, and GLI1 expression was assessed using qRT-PCR. Data is n=4 independent experiments. (B) NK-92 cells were stimulated using an anti-NKp46 mAb for 4 hours in the presence of 100 μM Bay K8644, and GLI1 expression was assessed using qRT-PCR. Data is n=3 independent experiments. (C) An LDH assay was performed to assess specific cell killing of K562 target cells at indicated effector to target ratios in the presence of 10 μM FPL 64176 (right-hand columns) or carrier control (left-hand columns). Error bars indicate SD. Data is from n=3 independent experiments.
To investigate whether L-type Cav channel agonists are also capable of enhancing GLI1 mRNA levels in the human NK cell line NK-92 (a non-Hodgkin's lymphoma cell line, expressing only Cav1.3), NK-92 cells were stimulated using an anti-NKp46 mAb (5 μg/mL) for 4 hours in the presence of either 10 μM FPL 64176 or 100 μM Bay K8644. For reference, Bay K8644 is a structural analogue of nifedipine, and acts as an L-type Cav channel agonist. GLI1 expression was assessed using qRT-PCR. […] These observations confirm that the GLI1-inducing effect of Cav agonists is not merely restricted to the compound FPL 64176. In particular, in NK cells.

[3] = tested on: Gli1; test: Gli1 expression by qRT-PCR in anti-CD3ε-stimulated murine CD8+ CTLs; type: cell-based; conditions: anti-CD3ε restimulation 6 hours
Description: as §1
FIG. 2. FPL 64176 but not (R)-Baclofen nor Nefiracetam enhance Gli1 expression in murine CD8+ CTLs. Naïve CD8^+ T cells were isolated from the spleens of OT-I Rag2^−/− mice and CTLs were generated. Cells were restimulated using an anti-CD3ε mAb in the presence indicated concentrations of (A) FPL 64176, (B) (R)-Baclofen or (C) Nefiracetam (or carrier control). CTLs were pre-incubated with the relevant pharmacological agents for 40-50 mins prior to stimulation (ensuring sufficient time for the agents, e.g., FPL 64176, to enter the cell. Gli1 expression was assessed by qRT-PCR. Data is n=2 independent experiments. Error bars indicate SD.
To investigate a potential role for L-type Cav channel agonists in modulating CD8+ CTL activation and effector function, CD8+ T cells were isolated from the spleen and inguinal lymph nodes of Rag2−/− OT-I mice and CTLs were generated. […] OT-I mice bear a transgene encoding for a TCR that recognises a chicken ovalbumin (Ova) peptide fragment. Rag2−/− OT-I mice facilitate the isolation of naïve CD8+ T cell populations. Plates were coated using 2.5 μg/mL anti-CD3ε mAb and CD8+ CTLs were stimulated for 3 hours via the TCR in the presence of 5 or 10 μM FPL 64176, an L-type Cav channel agonist, or carrier control. Note that CD8+ CTLs were pre-incubated with FPL 64176 or carrier control for 40-50 mins before stimulation. Gli1 expression was assessed using qRT-PCR.
In brief, naïve CD8+ T cells were isolated from the spleen and inguinal lymph nodes of C57BL/6 wildtype mice and CTLs were generated. […] RNA was extracted from cells and Gli1 expression was assessed by qRT-PCR. […]

O=C(O)CN(CC(=O)O)c1ccccc1OCCOc1ccccc1N(CC(=O)O)CC(=O)O [BAPTA]
immune cell killing [1]: depleted

COC(=O)C1=C(C)NC(C)=C([N+](=O)[O-])C1c1ccccc1C(F)(F)F (stereo not shown) [Bay K8644]
GLI1 mRNA levels [2]: increased (almost two-fold)

NC[C@H](CC(=O)O)c1ccc(Cl)cc1 [(R)-Baclofen]
Gli1 expression following TCR activation ([3]; indicated concentrations, vs carrier control (FIG. 2)): little effect

Cc1cccc(C)c1NC(=O)CN1CCCC1=O [Nefiracetam]
reduction of Gli1 expression ([3]; vs carrier control (FIG. 2C)): around 50%
